# Patent US6737383B1, “Herbicidal oxadiazolidines” (priority 1999, dated 2004)
# Tests used:
# sugar beet = test: Test B pre/postemergence sugar beet; type: in vivo, Beta vulgaris
# Summary of the method: (§1)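 Response is a visual 0-to-10 score relative to untreated plants, where 0 means no effect and 10 means complete control, taken twelve to sixteen days after application. Treatments went onto soil at planting and onto foliage of 1- to 4-leaf plants, using a surfactant-containing non-phytotoxic solvent.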
# purple nutsedge = test: Test B pre/postemergence purple nutsedge; type: in vivo, Cyperus rotundus
# Summary of the method: as §1
# rice = test: Test B flood test rice; type: in vivo, Oryza sativa; conditions: for Plant response rating, Rice (0 to 10 scale, 0 is no effect, 10 is complete control) / Rice plant response rating (0 to 10 scale, 0 is no effect, 10 is complete control): visual evaluation after twelve to sixteen days; for Rice plant response rating (0 to 10 scale, 0 is no effect, 10 is complete control): under heading Pre-emergence
# Summary of the method: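 Read-out is a visual response score from 0 (no effect) to 10 (complete control), assigned by comparison with untreated controls. Treatment was applied at the 2-leaf stage, and plants stayed in the greenhouse for twelve to sixteen days before scoring.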
# pigweed = test: Test B pre/postemergence pigweed; type: in vivo, Amaranthus retroflexus
# Summary of the method: as §1
# [1] = Postemergence, Rate 250 g/ha, scale 0 to 10, 0 is no effect, 10 is complete control
# [2] = Postemergence, Rate 500 g/ha, scale of 0 to 10 where 0 is no effect and 10 is complete control
# [3] = Preemergence, Rate 62 g/ha, scale 0 to 10 (0 no effect, 10 complete control)
# [4] = Preemergence, Rate 125 g/ha, scale of 0 to 10 where 0 is no effect and 10 is complete control
# [5] = Preemergence, Rate 250 g/ha, scale 0 to 10, 0 is no effect, 10 is complete control
# [6] = Preemergence, Rate 500 g/ha, scale 0 to 10, 0 is no effect, 10 is complete control
# [7] = Rate 62 g/ha, Postemergence, scale of 0 to 10 where 0 is no effect and 10 is complete control
# [8] = Rate 62 g/ha, flood test species, Pre-emergence
# [9] = Rate 125 g/ha, flood test species
# [10] = Rate 250 g/ha, Pre-emergence, flood-test species, scale 0 to 10, 0 is no effect, 10 is complete control
# [11] = Rate 500 g/ha, Pre-emergence, flood test species, scale 0 to 10 (0 no effect, 10 complete control)
# [12] = Rate 125 g/ha, Postemergence, scale 0 to 10, 0 is no effect, 10 is complete control
# [13] = Postemergence section (flood test species), Rate 500 g/ha, scale of 0 to 10 where 0 is no effect and 10 is complete control
# [14] = Rate 125 g/ha, Postemergence section (flood test species), scale 0 to 10, 0 is no effect, 10 is complete control
# [15] = Postemergence, Rate 250 g/ha, scale 0 to 10
# [16] = Postemergence block (flood test species), Rate 250 g/ha, scale 0 to 10
# [17] = Rate 62 g/ha, Postemergence, scale 0 to 10, 0 no effect, 10 complete control
SMILES,Sugarbeets plant response rating (sugar beet; [2]),"Plant response rating, Sugarbeets (sugar beet; [3])","Plant response rating, Sugarbeets (sugar beet; [4])",Sugarbeets plant response rating (sugar beet; [5]),Sugarbeets plant response rating (sugar beet; [6]),Nutsedge plant response rating (purple nutsedge; [2]),"Plant response rating, Nutsedge (purple nutsedge; [3])","Plant response rating, Nutsedge (purple nutsedge; [4])",Nutsedge plant response rating (purple nutsedge; [5]),Nutsedge plant response rating (purple nutsedge; [6]),Redroot pigweed plant response rating (pigweed; [2]),"Plant response rating, Redroot pigweed (pigweed; [3])","Plant response rating, Redroot pigweed (pigweed; [4])",Redroot pigweed plant response rating (pigweed; [5]),Redroot pigweed plant response rating (pigweed; [6]),Sugarbeets plant response rating (sugar beet; [12]),Nutsedge plant response rating (purple nutsedge; [12]),Rice plant response rating (rice; [13]),Rice plant response rating (rice; [14]),Redroot pigweed plant response rating (pigweed; [12]),further results
CC(C)N(C(=O)n1oc(=O)n(CC2CCC2)c1=O)c1ccc(F)cc1 [Compound 403],3,0,1,3,5,0,0,0,0,0,2,0,4,9,9,,,,,,"Plant response rating, Sugarbeets (sugar beet; [1]): 0; Sugarbeets plant response rating (sugar beet; [7]): 0; Plant response rating, Nutsedge (purple nutsedge; [1]): 0; Nutsedge plant response rating (purple nutsedge; [7]): 0; Plant response rating, Rice (0 to 10 scale, 0 is no effect, 10 is complete control) (rice; [8]): 0; Rice plant response rating (0 to 10 scale, 0 is no effect, 10 is complete control) (rice; [9]): 0; Rice plant response rating (rice; [10]): 0; Rice plant response rating (rice; [11]): 0; Plant response rating, Redroot pigweed (pigweed; [1]): 1; Redroot pigweed plant response rating (pigweed; [7]): 0"
Cc1nc(Cl)sc1C(C)n1c(=O)on(C(=O)N(c2ccccc2)C(C)C)c1=O (stereo not drawn) [Compound 407],0,0,0,0,0,0,0,0,0,0,0,0,0,0,0,,,,,,"Plant response rating, Sugarbeets (sugar beet; [1]): 0; Plant response rating, Nutsedge (purple nutsedge; [1]): 0; Plant response rating, Rice (0 to 10 scale, 0 is no effect, 10 is complete control) (rice; [8]): 0; Rice plant response rating (0 to 10 scale, 0 is no effect, 10 is complete control) (rice; [9]): 0; Rice plant response rating (rice; [10]): 0; Rice plant response rating (rice; [11]): 0; Plant response rating, Redroot pigweed (pigweed; [1]): 0"
CC(C)N(C(=O)n1oc(=O)n(C(CF)CF)c1=O)c1ccccc1 [Compound 421],6,8,10,10,10,2,0,0,0,0,8,8,10,10,10,0,0,2,0,2,"Plant response rating, Sugarbeets (sugar beet; [1]): 3; Plant response rating, Nutsedge (purple nutsedge; [1]): 0; Plant response rating, Rice (rice; flood test species, listed under Postemergence, Rate 250 g/ha, scale 0 to 10, 0 is no effect, 10 is complete control): 2; Plant response rating, Redroot pigweed (pigweed; [1]): 5"
C=C[Si](C)(C)Cn1c(=O)on(C(=O)N(c2ccc(Cl)cc2)C(C)C)c1=O [Compound 425],4,0,0,2,2,0,0,0,3,5,2,0,0,3,3,2,0,0,0,0,Sugarbeets plant response rating (sugar beet; [15]): 3; Nutsedge plant response rating (purple nutsedge; [15]): 0; Rice plant response rating (rice; [16]): 0; Redroot pigweed plant response rating (pigweed; [15]): 2
CCN(C(=O)n1oc(=O)n(C2CCCCCC2)c1=O)C1CCCCC1 [Compound 429],0,0,0,0,0,0,0,0,0,0,0,0,0,0,0,0,0,0,0,0,Sugarbeets plant response rating (sugar beet; [15]): 0; Nutsedge plant response rating (purple nutsedge; [15]): 0; Rice plant response rating (rice; [16]): 0; Redroot pigweed plant response rating (pigweed; [15]): 0
CC(C)N(C(=O)n1oc(=O)n(CCC#N)c1=O)c1ccccc1 [Compound 436],0,0,0,0,5,3,0,0,0,5,7,0,0,0,10,0,0,0,0,0,"Sugarbeets plant response rating (sugar beet; [15]): 0; Sugarbeets plant response rating (sugar beet; [17]): 0; Nutsedge plant response rating (purple nutsedge; [15]): 0; Nutsedge plant response rating (purple nutsedge; [17]): 0; Rice plant response rating (rice; [16]): 0; Rice plant response rating (rice; Rate 62 g/ha, Postemergence (flood test), scale 0 to 10, 0 no effect, 10 complete control): 0; Redroot pigweed plant response rating (pigweed; [15]): 0; Redroot pigweed plant response rating (pigweed; [17]): 0"
